According to patent publication US9035059B2, “Nitrogen-containing condensed heterocyclic compound” (TAISHO PHARMACEUTICAL CO., LTD., priority 2011, dated 2015):

molecular target: MGAT2 (microsomal fraction of human small intestine) (Homo sapiens (Human), UniProt Q3SYC2); test: Test Example 2: Test of MGAT2 inhibitory action (microsomal fraction of human small intestine, 3H-labeled 2-monooleoyl glycerol); assay type: biochemical; conditions: microsomal fraction of human small intestine 5 μg/ml; 4 μM oleoyl-CoA, 1.25 μM 2-monooleoyl glycerol, 0.125 μM 3H-labeled 2-monooleoyl glycerol; room temperature 30 min; read-out: Activity Value [nM] (IC50, concentration at which 50% of the products 3H-labeled dioleoyl glycerol and trioleoyl glycerol was inhibited)
Experimental: An MGAT2 inhibition test for test compounds was conducted in accordance with a partially modified version of the method described in John F. Lockwood et al., Am. J. Physiol. Endocrinol. Metab., 2003, 285, E927.
A 10 mg/mL microsomal fraction of human small intestine (duodenum- and jejunum-derived fraction purchased from Becton Dickinson Japan) was used as an enzyme source.
The test was conducted using a flat-bottom 96-well plate (Corning).
A buffer solution with final concentrations of 5 mM magnesium chloride, 1.25 mg/ml bovine serum albumin and 100 mM Tris-HCl (pH=7.5) was prepared and the microsomal fraction of human small intestine was added thereto to give a final concentration of 5 μg/ml. […] Thereafter, final concentrations of 5 mM magnesium chloride, 1.25 mg/ml bovine serum albumin, 100 mM Tris-HCl (pH=7.5), 4 μM oleoyl-CoA, 1.25 μM 2-monooleoyl glycerol and 0.125 μM ^3H-labeled 2-monooleoyl glycerol (Muromachi Yakuhin Co., Ltd.) were added thereto to give a total volume of 100 μl. This mixture was reacted at room temperature for 30 min.
The reaction was stopped by adding an equal amount of isopropanol to the reaction mixture. The substrate contained in the reaction mixture (^3H-labeled 2-monooleoyl glycerol) and the reaction products (^3H-labeled dioleoyl glycerol and trioleoyl glycerol) were separated by adsorbing them onto an octadecylsilane resin (Wako gel 50C18) (Wako Pure Chemical Industries, Ltd.), removing the substrate by use of 80% isopropanol, and then eluting the reaction products with 100% isopropanol. The amounts of the reaction products were measured with MicroBeta (PerkinElmer Japan).

MGAT2 (microsomal fraction of human small intestine), sequence (Q3SYC2 whole entry): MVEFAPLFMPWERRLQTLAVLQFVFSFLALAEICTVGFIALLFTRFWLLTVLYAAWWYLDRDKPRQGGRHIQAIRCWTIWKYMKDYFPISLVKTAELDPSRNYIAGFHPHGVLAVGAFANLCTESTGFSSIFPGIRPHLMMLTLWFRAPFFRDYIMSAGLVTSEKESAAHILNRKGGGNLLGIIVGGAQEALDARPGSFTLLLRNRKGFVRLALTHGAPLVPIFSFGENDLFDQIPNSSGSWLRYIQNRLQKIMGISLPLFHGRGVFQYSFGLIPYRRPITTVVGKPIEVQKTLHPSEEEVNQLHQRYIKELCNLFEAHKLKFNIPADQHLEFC

| Structure (SMILES) | IC50 [nM] |
| --- | --- |
| CC(C)(C)c1cnc(CCN2CCc3cc(S(=O)(=O)Nc4ccc(CCCC5CCCC5)cc4F)ccc3C2)cn1 [Working Example 9-23] | 46 |
| CC(C)(C)c1ccc(CCN2CCc3cc(S(=O)(=O)Nc4ccc(OCCCOCC(F)(F)F)cc4F)ccc3C2)cc1 [Working Example 8-12] | 158 |
| CC(C)Cn1cc(CN2CCc3cc(S(=O)(=O)Nc4ccc(CCCC5CCCC5)cc4F)ccc3C2)cn1 [Working Example 2-6] | 174 |
| Cc1cc(CN2CCc3cc(S(=O)(=O)Nc4ccc(CCCC5CCCC5)cc4F)ccc3C2)c(C)n1-c1ccncc1 [Working Example 7-88] | 145 |
| Cc1nn(C)c(C)c1CN1CCc2cc(S(=O)(=O)Nc3ccc(CCCC4CCCC4)cc3F)ccc2C1 [Working Example 7-82] | 189 |
| CC(C)(C)c1ccc(CCN2CCc3cc(S(=O)(=O)Nc4ccc(OCCCS(=O)(=O)c5ccccc5)cc4F)ccc3C2)cc1 [Working Example 8-6] | 35 |
| O=S(=O)(Nc1ccc(CCCC2CCCC2)cc1F)c1ccc2c(c1)CCN(Cc1cnn(CC3CC3)c1)C2 [Working Example 2-7] | 234 |
| CC(C)(C)c1ccc(CCN2CCc3cc(S(=O)(=O)Nc4ccc(OCCCOC5CCCC5)cc4F)ccc3C2)cc1 [Working Example 8-14] | 68 |
| CC(C)(C)n1cc(CN2CCc3cc(S(=O)(=O)Nc4ccc(OCCC5CCOCC5)cc4F)ccc3C2)cn1 [Working Example 2-10] | 198 |
| CC(C)(C)c1cc(CN2CCc3cc(S(=O)(=O)Nc4ccc(OCCC5CCOCC5)cc4F)ccc3C2)ccn1 [Working Example 8-7] | 235 |
| Cc1c(CN2CCc3cc(S(=O)(=O)Nc4ccc(CCCC5CCCC5)cc4F)ccc3C2)cnn1-c1ccccc1 [Working Example 7-70] | 81 |
| CC(C)(C)c1ccc(CCN2CCc3cc(S(=O)(=O)Nc4ccc(OCC[C@H]5CCOC[C@@H]5F)cc4F)ccc3C2)cc1 [Working Example 8-15] | 204 |
| Cc1nn(-c2ccccc2)c(C)c1CN1CCc2cc(S(=O)(=O)Nc3ccc(CCCC4CCCC4)cc3F)ccc2C1 [Working Example 7-71] | 57 |
| O=S(=O)(Nc1ccc(OCCC2CCOCC2)cc1F)c1ccc2c(c1)CCN(Cc1cnc(C(F)(F)F)nc1)C2 [Working Example 6-83] | 193 |
| Cc1ccc(-n2cc(CN3CCc4cc(S(=O)(=O)Nc5ccc(CCCC6CCCC6)cc5F)ccc4C3)cn2)cc1 [Working Example 7-76] | 16 |
| C[C@H](c1ccc(C(C)(C)C)nc1)N1CCc2cc(S(=O)(=O)Nc3ccc(CCCC4CCCC4)cc3F)ccc2C1 [24-1, 2-[(1R)-1-(6-tert-Butylpyridin-3-yl)ethyl]-N-[4-(3-cyclopentylpropyl)-2-fluorophenyl]-1,2,3,4-tetrahydroisoquinoline-6-sulfonamide] | 4 |
| O=S(=O)(Nc1ccc(CCCC2CCCC2)cc1F)c1ccc2c(c1)CCN(CCc1ccc(C(F)(F)F)cn1)C2 [Working Example 9-24] | 46 |
| CC(C)(C)c1ccc(CCN2CCc3cc(S(=O)(=O)Nc4ccc(OCCOCC5CCCCO5)cc4F)ccc3C2)cc1 (stereo not drawn) [Working Example 8-8] | 178 |
| Cc1cc(CN2CCc3cc(S(=O)(=O)Nc4ccc(CCCC5CCCC5)cc4F)ccc3C2)c(C)n1-c1cccc(C(F)(F)F)c1 [Working Example 7-81] | 45 |
| O=S(=O)(Nc1ccc(CCCC2CCCC2)cc1F)c1ccc2c(c1)CCN(Cc1cnc(-c3ccc(Cl)cc3)s1)C2 [Working Example 7-74] | 105 |
| Cc1nc(-c2ccccc2)sc1CN1CCc2cc(S(=O)(=O)Nc3ccc(CCCC4CCCC4)cc3F)ccc2C1 [Working Example 7-65] | 118 |
| CC(C)(C)c1ccc(CCN2CCc3cc(S(=O)(=O)Nc4ccc(OCCC5CCCC5)cc4F)ccc3C2)cc1 [Working Example 8-5] | 29 |
| CCn1cc(CN2CCc3cc(S(=O)(=O)Nc4ccc(CCCC5CCCC5)cc4F)ccc3C2)cn1 [Working Example 6-82] | 182 |
| Cc1ccc(-n2nc(C)c(CN3CCc4cc(S(=O)(=O)Nc5ccc(CCCC6CCCC6)cc5F)ccc4C3)c2C)cc1 [Working Example 7-80] | 66 |
| CC(C)(C)c1cc(CCN2CCc3cc(S(=O)(=O)Nc4ccc(CCCC5CCCC5)cc4F)ccc3C2)ccn1 [Working Example 6-90] | 164 |
| CC(C)(C)c1ccc(CCN2CCc3cc(S(=O)(=O)Nc4ccc(OCCOC5CCCCC5)cc4F)ccc3C2)cc1 [Working Example 8-13] | 137 |
| CC(C)(C)c1ccc(CCN2CCc3cc(S(=O)(=O)Nc4ccc(OCCC5CCOC5)cc4F)ccc3C2)cc1 (stereo not drawn) [Working Example 8-10] | 148 |

More lines, now with the values ahead:

| IC50 [nM] | Structure (SMILES) |
| --- | --- |
| 223 | CC(C)(C)c1ccc(CC(C)(C)N2CCc3cc(S(=O)(=O)Nc4ccc(OCCC5CCOCC5)cc4F)ccc3C2)cc1 [20-3] |
| 42 | CC(c1ccc(C(F)(F)F)nc1)N1CCc2cc(S(=O)(=O)Nc3ccc(CCCC4CCCC4)cc3F)ccc2C1 (single isomer, unassigned) [24-3] |
| 57 | CC(c1cnc(C(C)(C)C)nc1)N1CCc2cc(S(=O)(=O)Nc3ccc(CCCC4CCCC4)cc3F)ccc2C1 (single isomer, unassigned) [24-7] |
| 14 | CC(C)(C)c1ccc(CC(C)(C)N2CCc3cc(S(=O)(=O)Nc4ccc(CCCC5CCCC5)cc4F)ccc3C2)cc1 [20-2] |
| 5 | CC(C)(C)c1ccc(C(C)(C)N2CCc3cc(S(=O)(=O)Nc4ccc(CCCC5CCCC5)cc4F)ccc3C2)cn1 [20-4] |
| 100 | CC(c1cnc(C(F)(F)F)nc1)N1CCc2cc(S(=O)(=O)Nc3ccc(CCCC4CCCC4)cc3F)ccc2C1 (single isomer, unassigned) [24-10] |

molecular target: human MGAT2 (Homo sapiens (Human), UniProt Q3SYC2); test: Test Example 1: Test of MGAT2 inhibitory action (human MGAT2 enzyme fraction from Sf9 cells, free CoA detected by CPM fluorescence); assay type: biochemical; conditions: human MGAT2 enzyme fraction expressed in Sf9 insect cells, 0.5 μg/ml, 2-monooleoyl glycerol 0.78 μM, oleoyl-CoA 5.3 μM, room temperature 20 min, listed as 10-6, read-out: Activity Value [nM] (IC50, concentration at which 50% of produced free CoA was inhibited)
Experimental: The MGAT2 inhibitory action of the inventive compound was measured by the methods described in Test Examples as shown below. The MGAT enzyme activity was measured based on the amount of an indicator, free Coenzyme A (CoA) which is generated by the reaction shown below, using a sulfhydryl reactive pigment (7-diethylamino-3-(4-maleimidophenyl)-4-methylcoumarin; hereinafter, sometimes abbreviated as CPM).
A test for MGAT2 inhibitory action of test compounds was conducted in accordance with a partially modified version of the method described in John F. Lockwood et al., Am. J. Physiol. Endocrinol. Metab., 2003, 285, E927.
Bac-to-Bac Baculovirus Expression System (Life Technologies Japan) was used to express human MGAT2 in insect cells (Sf9) (Life Technologies Japan). These cells were sonicated and centrifuged at 100,000 g×1 hr to give a precipitate. The precipitate was used as a human MGAT2 enzyme fraction in this assay.
This test was conducted using a black flat-bottom 96-well plate (Corning). A buffer solution with final concentrations of 5 mM magnesium chloride, 100 mM sucrose and 100 mM Tris-HCl (pH=7.5) was prepared and test compounds prepared in various concentrations using dimethyl sulfoxide were added thereto to give a final dimethyl sulfoxide concentration of 1%. The MGAT2 enzyme fraction was added thereto to give a final concentration of 0.5 μg/ml and phosphatidylcholine, 2-monooleoyl glycerol and oleoyl-CoA were added thereto to give final concentrations of 7.5 μM, 0.78 μM and 5.3 μM, respectively, before starting a reaction. The reaction was performed at room temperature for 20 min.
After 20 min, a CPM-containing solution was added thereto to give a final concentration of 5 μM before stopping the MGAT reaction. After 1 hr, a fluorescence detector (Infinite 200 from Tecan Japan) was used to measure the CPM fluorescence value of each well (excitation 380 nm, emission 460 nm).

human MGAT2, sequence (Q3SYC2 whole entry): as above

| Structure (SMILES) | IC50 [nM] |
| --- | --- |
| CC(Cc1ccc(C(C)(C)C)cc1)N1CCc2cc(S(=O)(=O)Nc3ccc(CCCC4CCCC4)cc3F)ccc2C1 (single isomer, unassigned) [Working Example 10-6] | 44 |

same assay, conditions: human MGAT2 enzyme fraction expressed in Sf9 insect cells, 0.5 μg/ml, 2-monooleoyl glycerol 0.78 μM, oleoyl-CoA 5.3 μM, room temperature 20 min, listed as 10-8, read-out: Activity Value [nM] (IC50, concentration at which 50% of produced free CoA was inhibited)

| Structure (SMILES) | IC50 [nM] |
| --- | --- |
| CCCCCCCc1ccc(NS(=O)(=O)c2ccc3c(c2)CCN(C(C)Cc2ccc(C(C)(C)C)cc2)C3)c(F)c1 (single isomer, unassigned) [Working Example 10-8] | 62 |

same assay, conditions: human MGAT2 enzyme fraction expressed in Sf9 insect cells, 0.5 μg/ml, 2-monooleoyl glycerol 0.78 μM, oleoyl-CoA 5.3 μM, room temperature 20 min, read-out: Activity Value [nM] (IC50, concentration at which 50% of produced free CoA was inhibited)

| Structure (SMILES) | IC50 [nM] |
| --- | --- |
| CC(C)(C)c1ccc(CCN2CCc3cc(S(=O)(=O)Nc4ccc(CCCC5CCCC5)cc4F)ccc3C2)cc1 [Working Example 6-17] | 28 |
| CC(C)(C)c1ccc(NC(=O)N2Cc3ccc(S(=O)(=O)Nc4ccc(OCCCC5CCCC5)cc4F)cc3C2)cc1 [19-3] | 4 |
| CC(C)(C)c1cnc(CCN2CCc3cc(S(=O)(=O)Nc4ccc(CCCC5CCCC5)cc4F)ccc3C2)nc1 [Working Example 6-64] | 40 |
| CC(C)(C)c1ccc(NC(=O)N2Cc3ccc(S(=O)(=O)Nc4ccc(OCC5CCCCC5)cc4F)cc3C2)cc1 [18-10] | 230 |
| CC(C)(C)c1ccc(NC(=O)N2Cc3ccc(S(=O)(=O)Nc4ccc(OCCCC5CCCCC5)cc4F)cc3C2)cc1 [18-12] | 26 |
| CC(C)(C)c1ccc(NC(=O)N2Cc3ccc(S(=O)(=O)Nc4ccc(OCCCOc5ccccc5)cc4F)cc3C2)cc1 [18-23] | 92 |
| CC(C)(C)c1ccc(NC(=O)N2Cc3ccc(S(=O)(=O)Nc4ccc(OCCc5ccccn5)cc4F)cc3C2)cc1 [19-12] | 23 |
